According to US6486128B1, “Method of using emamectin to treat fish parasites” (Schering-Plough Veterinary Corporation, priority 1999, dated 2002):
Where “and” joins values, the source holds several entries; their conditions need not be identical. Equal entries are not always repeated.

Tests used:
[1] = test system: sea lice, Lepeophtheirus salmonis; experiment: Dose confirmation study I: efficacy of emamectin benzoate in feed against induced sea lice infestations on Atlantic salmon; type: in vivo; conditions: for Percentage fish mortality: mortality attributed to sea lice damage, includes culled fish
Procedure: (§1) Three studies were carried out at the Institute of Aquaculture Marine Environmental Research Laboratory in Machrihanish, Scotland. Atlantic salmon, Salmo salar L., post-smolts were obtained from a disease free stock and acclimatised at the test facility.
(§2) Fish were held in replicate groups in plastic fiber tanks, each with a volume of 0.54 m^3. Each tank was supplied with natural sea water at ambient temperature (7-14° C.) and salinity (30-35 ppt), at flow rates of approximately 18 l. min^−1. The tanks were fitted with mesh screens over the water outlet to retain uneaten fish pellets. Fish were observed daily for behavior and adverse drug reactions. Fish mortalities and the occurrence of gross sea lice damage were also recorded.
(§3) Sea lice were collected during harvesting on commercial salmon farms on the west coast of Scotland. Egg strings collected from gravid female lice were incubated in sea water at ambient temperature and within a salinity range of 32-35 ppt. Once the hatched larvae reached the copepodite stage, 38-170 copepodites per fish were introduced into each of four replicate tanks of fish and the water supply to each tank was turned off for approximately three hours to allow attachment of copepodites to the fish. This was repeated 4-5 times at intervals of 3-5 days until chalimus stages I, II, III and IV were present. Chalimus numbers were evaluated at day −1 or day −2 pre-treatment, on sub-samples of fish (N=6-9 fish per tank). At this point, fish were infested with pre-adult and adult lice, by adding 5-10 lice per fish to each tank. Water supplies to each tank were turned off for around one hour until all the lice had attached to the fish. Pre-treatment lice numbers were based on a sub-sample of the total population and presented as the mean number of chalimus per fish. Fish were then randomly re-distributed from the four original tanks to each control or treatment tank, as described in the experimental design for each study, and no further infestations were carried out during or after treatment.
(§4) The basal ration was Fulmar™ (BOCM Pauls Ltd.) 3.5 or 5 mm salmon feed pellets. Emamectin benzoate was dissolved in propylene glycol and mixed with fish oil prior to top coating the feed pellets. Control feeds were prepared in the same way with propylene glycol and fish oil. Treatment was administered at nominal dose rates of 0, 25, 50 and 100 μg kg^−1 fish biomass per day, at a feed rate of 0.5% biomass, for a period of seven consecutive days (days 0-6). Actual daily feed consumption was measured in each tank by collecting the uneaten feed pellets approximately thirty minutes after administration and subtracting the number of pellets from the daily ration fed. The mean dose consumed was calculated for each group as follows: [formula] Mean feed consumption (%)×nominal dose rate (μg·kg^−1)=Mean dose consumed (μg·kg^−1)
(§5) Evaluation of sea lice numbers was carried out at 7, 14 and 21 days from the start of treatment. Fish were anaesthetised in 40 mg·l^−1 ethyl-P-aminobenzoate (benzocaine) and each fish examined under a low power microscope. Lice were identified as chalimus I-IV, pre-adult I or II and adult stages. Pre-adults and adult lice were additionally identified as males or females. The numbers of each developmental stage were recorded. Any lice which detached in the anaesthetic solution were included in the counts and reattached to the fish after transferring them to fresh seawater. The fish were returned to the holding tanks after sampling and the same fish were evaluated at days 7, 14 and 21.
The water temperature was 12-14° C. and salinity was 33-35 ppt. Pre-treatment, mean fish weights were 224 g (±43 g S.D). Emamectin benzoate was administered at nominal daily dose rates of 0, 25, and 50 μg kg^−1 biomass. There were three replicate tanks per treatment with 15 fish per tank. […]

[2] = test system: L. salmonis; experiment: All three studies summarised: oral treatment of Atlantic salmon against L. salmonis; type: in vivo, Lepeophtheirus salmonis
Procedure: as §1, §2, §3, §4, §5
Results were summarised as chalimus (chalimus stages I-IV), motile lice pre-adult and adult stages) and total lice (chalimus and motile stages combined). Data on the number of lice per fish were subjected to F-tests for homogeneity of variances and a correlation test to examine the normality of distribution. Fish weights and pre-treatment lice counts were tested by one-way ANOVA. […]

[3] = Daily observation of fish for behavior, adverse drug reactions and mortalities (three studies); type: in vivo, Atlantic salmon, Salmo salar L.; conditions: any of the doses tested (25, 50, 100 μg kg^−1 per day, 7 days in feed)
Procedure: as §2

[4] = test system: sea lice, Lepeophtheirus salmonis; experiment: Dose confirmation study II: efficacy of emamectin benzoate in feed against induced sea lice infestations on Atlantic salmon; type: in vivo
Procedure: as §1, §2, §3, §4, §5
The water temperature was 9-12° C. and salinity was 30-34 ppt. Pre-treatment, mean fish weights were 418.2 g (±49 g S.D). Emamectin benzoate was administered at se rates of 0 and 50 μg kg^−1 biomass. There were three replicate tanks per treatment with a sample size of 15-16 fish per tank. […]

[5] = nominal dose 25 μg·kg^−1/day (consumed 20.2) in feed Day 0-6, day 21
[6] = nominal dose 25 μg·kg^−1/day in feed Day 0-6, Day 14
[7] = nominal dose 25 μg·kg^−1/day in feed Day 0-6, Day 21
[8] = nominal dose 50 μg·kg^−1/day (consumed 44.3) in feed Day 0-6, Day 7
[9] = nominal dose 50 μg·kg^−1/day (consumed 44.3) in feed Day 0-6, day 21
[10] = nominal dose 50 μg·kg^−1/day in feed Day 0-6, Day 14
[11] = nominal dose 50 μg·kg^−1/day in feed Day 0-6, Day 21
[12] = dose rate 50 μg kg^−1, three studies
[13] = nominal dose 50 μg·kg^−1/day (consumed 45.7) in feed Day 0-6, Day 7
[14] = nominal dose 50 μg·kg^−1/day (consumed 45.7) in feed Day 0-6, day 21

## emamectin benzoate
[1]; nominal dose 25 μg·kg^−1/day (consumed 20.2) in feed Day 0-6, Day 21
  % Reduction relative to controls (Total lice): 82% and 81.9%
[1]; [5]
  Percentage of fish with no lice present (chalimus or motiles): 3%
  Percentage of fish with no motile lice present: 6.1%
[1]; [6]
  % Reduction relative to controls (Total lice): 76.0%
  Mean Total lice (± S.D): 9.8 ± 4.4
  Mean chalimus (± S.D): 0.30
  Mean motiles (± S.D): 9.5 ± 4.4
[1]; [7]
  Mean Total lice (± S.D): 4.9 and 4.9 ± 3.1
  Mean chalimus (± S.D): 0
  Mean motiles (± S.D): 4.9 ± 3.1
[1]; nominal dose 25 μg·kg^−1/day
  Percentage fish mortality: 31%
[1]; [8]
  % Reduction relative to controls (Total lice): 53.8%
  Mean Total lice (± S.D): 28.1 ± 13.1
  Mean chalimus (± S.D): 3.2 ± 2.2
  Mean motiles (± S.D): 24.9 ± 13.2
[1]; nominal dose 50 μg·kg^−1/day (consumed 44.3) in feed Day 0-6, Day 21
  % Reduction relative to controls (Total lice): 94% and 94.3%
[1]; [9]
  Percentage of fish with no lice present (chalimus or motiles): 28.6%
  Percentage of fish with no motile lice present: 28.6%
[1]; [10]
  % Reduction relative to controls (Total lice): 88.0%
  Mean Total lice (± S.D): 4.9 ± 2.7
  Mean chalimus (± S.D): 0.6
  Mean motiles (± S.D): 4.3 ± 2.6
[1]; [11]
  Mean Total lice (± S.D): 1.6 and 1.6 ± 1.3
  Mean chalimus (± S.D): 0
  Mean motiles (± S.D): 1.6 ± 1.4
[1]; nominal dose 50 μg·kg^−1/day
  Percentage fish mortality: 27%
[1]; treated groups (25 and 50 μg kg^−1), day 7
  reduction of total mean numbers of lice compared to the control groups: 44-54%
[1]; treated groups (25 and 50 μg kg^−1), day 21
  total lice numbers lower than in the control groups: 82-94%
[2]; 50 μg kg^−1, day 7 from the start of medication, three studies
  reduction of motile lice numbers: 58-80%
[2]; [12]
  Percentage of fish with no motile lice present: ≤ 87%
  percentage of fish with no lice present of any stage: 20-30%
  reductions in sea lice numbers consistently achieved: 94-95%
[2]; oral treatment of Atlantic salmon
  efficacy against the immature chalimus stages: highly effective
[2]; oral treatment of Atlantic salmon, all three studies
  efficacy against the motile and chalimus stages of L. salmonis: very good efficacy
[3]
  adverse effects or fish mortality attributed to treatment: No adverse effects or fish mortality
[4]; 50 μg kg^−1 groups, by day 21 (21% of control fish had lesions)
  cranial lesions resulting from sea lice activity: No cranial lesions
[4]; [13]
  % Reduction relative to controls (Total lice): 46% and 45.9%
  Mean Total lice (± S.D): 40.5 ± 12.2
  Mean chalimus (± S.D): 30.0 ± 11.8
  Mean motiles (± S.D): 10.5 ± 8.1
[4]; nominal dose 50 μg·kg^−1/day (consumed 45.7) in feed Day 0-6, Day 21
  % Reduction relative to controls (Total lice): 95% and 94.6%
[4]; [14]
  Percentage of fish with no lice present (chalimus or motiles): 27%
  Percentage of fish with no motile lice present: 66% and 66.3%
[4]; [10]
  % Reduction relative to controls (Total lice): 70.7%
  Mean Total lice (± S.D): 14.7 ± 5.9
  Mean chalimus (± S.D): 12.7 ± 5.7
  Mean motiles (± S.D): 2.0 ± 3.2
[4]; [11]
  Mean Total lice (± S.D): 2.1 and 2.1 ± 2.1
  Mean chalimus (± S.D): 1.5 ± 1.7
  Mean motiles (± S.D): 0.6 and 0.6 ± 1.1
[4]; nominal dose 50 μg·kg^−1/day, mortality figures include culled fish
  Percentage fish mortality: 0%
